Measurements: ChEMBL document CHEMBL1201861, “Genomics of Drug Sensitity in Cancer screening data, Wellcome Trust Sanger Institute”

Assays:
Caov-3 cell line = assay: cells; type: functional, cell-based; details: Homo sapiens;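 also: cell growth inhibition read out by a viability assay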
Description: SANGER: Inhibition of human Caov-3 cell growth in a cell viability assay.

MDA-MB-134-VI = assay: cells; type: functional, cell-based, Homo sapiens; details: Homo sapiens, MDA-MB-134-VI
Description: SANGER: Inhibition of human MDA-MB-134-VI cell growth in a cell viability assay.

CWR22R = assay: cells; type: functional, cell-based; details: Homo sapiens, 22Rv1;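 also: growth inhibition of 22Rv1 cells, read out with a cell viability assay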
Description: SANGER: Inhibition of human 22RV1 cell growth in a cell viability assay.

5637 = assay: cells; type: functional, cell-based; details: Homo sapiens
Description: SANGER: Inhibition of human 5637 cell growth in a cell viability assay.

ChaGo-K-1 = assay: cells; type: functional, cell-based; details: Homo sapiens;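 also: growth inhibition of ChaGo-K-1 cells, read out with a cell viability assay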
Description: SANGER: Inhibition of human ChaGo-K-1 cell growth in a cell viability assay.

LP-1 = assay: cells; type: functional, cell-based, Homo sapiens; details: Homo sapiens, LP-1;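 also: growth inhibition of human LP-1 cells, with the read-out taken from a cell viability assay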
Description: SANGER: Inhibition of human LP-1 cell growth in a cell viability assay.

YAPC = assay: cells; type: functional, cell-based; details: Homo sapiens;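 also: growth inhibition of YAPC cells, measured with a cell viability assay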
Description: SANGER: Inhibition of human YAPC cell growth in a cell viability assay.

NCI-H1734 = assay: cells; type: functional, cell-based; details: Homo sapiens;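 also: growth inhibition of human NCI-H1734 cells, read out with a cell viability assay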
Description: SANGER: Inhibition of human NCI-H1734 cell growth in a cell viability assay.

SIG-M5 = assay: cells; type: functional, cell-based, Homo sapiens; details: Homo sapiens, SIG-M5;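 also: cell viability assay read-out, measuring how strongly growth of cultured human SIG-M5 cells is inhibited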
Description: SANGER: Inhibition of human SIG-M5 cell growth in a cell viability assay.

SNU-C1 = assay: cells; type: functional, cell-based, Homo sapiens; details: Homo sapiens, SNU-C1;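 also: growth inhibition of SNU-C1 human cells, read out by a cell viability assay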
Description: SANGER: Inhibition of human SNU-C1 cell growth in a cell viability assay.

EW-7 = assay: SANGER: Inhibition of human EW-7 cell growth in a cell viability assay.; type: functional, cell-based
647-V = assay: cells; type: functional, cell-based; details: Homo sapiens;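 also: growth inhibition of 647-V cells, read out with a cell viability assay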
Description: SANGER: Inhibition of human 647-V cell growth in a cell viability assay.

PC-14 = assay: cells; type: functional, cell-based; details: Homo sapiens;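 also: cell viability assay measuring inhibition of PC-14 cell growth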
Description: SANGER: Inhibition of human PC-14 cell growth in a cell viability assay.

MFE-296 = assay: SANGER: Inhibition of human MFE-296 cell growth in a cell viability assay.; type: functional, cell-based
U-118-MG = assay: cells; type: functional, cell-based; details: Homo sapiens
Description: SANGER: Inhibition of human U-118-MG cell growth in a cell viability assay.

SK-CO-1 = assay: cells; type: functional, cell-based; details: Homo sapiens;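 also: growth inhibition of SK-CO-1 cells, determined by a viability readout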
Description: SANGER: Inhibition of human SK-CO-1 cell growth in a cell viability assay.

COR-L279 = assay: SANGER: Inhibition of human COR-L279 cell growth in a cell viability assay.; type: functional, cell-based; details: Homo sapiens, COR-L279
Ca-Ski = assay: cells; type: functional, cell-based; details: Homo sapiens;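 also: cell viability assay measuring inhibition of Ca-Ski cell growth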
Description: SANGER: Inhibition of human Ca-Ski cell growth in a cell viability assay.

MONO-MAC-6 = assay: cells; type: functional, cell-based, Homo sapiens; details: Homo sapiens, MONO-MAC-6;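 also: cell viability assay measuring growth inhibition of human MONO-MAC-6 cells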
Description: SANGER: Inhibition of human MONO-MAC-6 cell growth in a cell viability assay.

NALM-6 = assay: cells; type: functional, cell-based, Homo sapiens; details: Homo sapiens, NALM-6;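 also: growth inhibition of NALM-6 cells, read out with a cell viability assay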
Description: SANGER: Inhibition of human NALM-6 cell growth in a cell viability assay.

GMS-10 = assay: cells; type: functional, cell-based; details: Homo sapiens;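 also: growth inhibition of GMS-10 cells, read out as cell viability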
Description: SANGER: Inhibition of human GMS-10 cell growth in a cell viability assay.

SBC-5 = assay: cells; type: functional, cell-based; details: Homo sapiens;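 also: cell viability assay read-out, IC50 is the concentration that inhibits growth of the cells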
Description: SANGER: Inhibition of human SBC-5 cell growth in a cell viability assay.

OVCAR-8 = assay: cells; type: functional, cell-based; details: Homo sapiens;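 also: growth inhibition of human OVCAR-8 cells, read out by a cell viability assay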
Description: SANGER: Inhibition of human OVCAR-8 cell growth in a cell viability assay.

MDA-MB-468 = assay: cells; type: functional, cell-based; details: Homo sapiens
Description: SANGER: Inhibition of human MDA-MB-468 cell growth in a cell viability assay.

DV-90 = assay: cells; type: functional, cell-based; details: Homo sapiens;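 also: Read-out is a viability assay, with IC50 reflecting the drop in DV-90 cell growth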
Description: SANGER: Inhibition of human DV-90 cell growth in a cell viability assay.

GAMG = assay: cells; type: functional, cell-based; details: Homo sapiens;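 also: cell growth inhibition measured by a viability assay in the GAMG human cell line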
Description: SANGER: Inhibition of human GAMG cell growth in a cell viability assay.

LU-99A = assay: cells; type: functional, cell-based; details: Homo sapiens;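 also: growth inhibition of LU-99A cells, read out with a cell viability assay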
Description: SANGER: Inhibition of human LU-99A cell growth in a cell viability assay.

NUGC-3 = assay: cells; type: functional, cell-based; details: Homo sapiens;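 also: growth inhibition of human NUGC-3 cells, read out with a cell viability assay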
Description: SANGER: Inhibition of human NUGC-3 cell growth in a cell viability assay.

OE33 = assay: cells; type: functional, cell-based; details: Homo sapiens;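 also: growth inhibition of human OE33 cells, measured by a cell viability assay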
Description: SANGER: Inhibition of human OE33 cell growth in a cell viability assay.

MES-SA = assay: cells; type: functional, cell-based; details: Homo sapiens;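 also: growth inhibition of human MES-SA cells, read out with a cell viability assay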
Description: SANGER: Inhibition of human MES-SA cell growth in a cell viability assay.

NCI-H358 = assay: cells; type: functional, cell-based; details: Homo sapiens;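 also: growth inhibition of NCI-H358 human cells, read out with a cell viability assay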
Description: SANGER: Inhibition of human NCI-H358 cell growth in a cell viability assay.

CCF-STTG1 = assay: cells; type: functional, cell-based; details: Homo sapiens;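 also: growth inhibition of human CCF-STTG1 cells, determined with a cell viability read-out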
Description: SANGER: Inhibition of human CCF-STTG1 cell growth in a cell viability assay.

8505C = assay: cells; type: functional, cell-based; details: Homo sapiens
Description: SANGER: Inhibition of human 8505C cell growth in a cell viability assay.

HLE = assay: cells; type: functional, cell-based; details: Homo sapiens;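 also: growth inhibition of human HLE cells, read out by a cell viability assay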
Description: SANGER: Inhibition of human HLE cell growth in a cell viability assay.

HOP-92 = assay: cells; type: functional, cell-based; details: Homo sapiens;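 also: cell viability readout, with IC50 reflecting inhibition of HOP-92 cell growth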
Description: SANGER: Inhibition of human HOP-92 cell growth in a cell viability assay.

CAL-12T = assay: cells; type: functional, cell-based; details: Homo sapiens;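 also: growth inhibition of human CAL-12T cells, read out with a cell viability assay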
Description: SANGER: Inhibition of human CAL-12T cell growth in a cell viability assay.

KYSE-140 = assay: cells; type: functional, cell-based; details: Homo sapiens;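 also: cell viability assay measuring growth inhibition in human KYSE-140 cells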
Description: SANGER: Inhibition of human KYSE-140 cell growth in a cell viability assay.

EB2 = assay: cells; type: functional, cell-based, Homo sapiens; details: Homo sapiens, EB2;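 also: growth inhibition of EB2 cells, read out with a cell viability assay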
Description: SANGER: Inhibition of human EB2 cell growth in a cell viability assay.

DMS-79 = assay: cells; type: functional, cell-based, Homo sapiens; details: Homo sapiens, DMS-79
Description: SANGER: Inhibition of human DMS-79 cell growth in a cell viability assay.

NCI-H345 = assay: cells; type: functional, cell-based, Homo sapiens; details: Homo sapiens, NCI-H345;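 also: growth inhibition of NCI-H345 cells measured with a cell viability assay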
Description: SANGER: Inhibition of human NCI-H345 cell growth in a cell viability assay.

SW-620 = assay: cells; type: functional, cell-based; details: Homo sapiens;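 also: growth inhibition of human SW-620 cells, measured by a cell viability assay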
Description: SANGER: Inhibition of human SW620 cell growth in a cell viability assay.

A-431 = assay: cells; type: functional, cell-based; details: Homo sapiens;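 also: growth inhibition of A-431 cells, determined with a cell viability read-out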
Description: SANGER: Inhibition of human A431 cell growth in a cell viability assay.

T47D = assay: cells; type: functional, cell-based; details: Homo sapiens;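 also: growth inhibition of human T47D cells, measured with a cell viability assay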
Description: SANGER: Inhibition of human T47D cell growth in a cell viability assay.

K052 = assay: cells; type: functional, cell-based, Homo sapiens; details: Homo sapiens, K052;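 also: Read-out from a cell viability assay, IC50 reflecting suppression of K052 cell growth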
Description: SANGER: Inhibition of human K052 cell growth in a cell viability assay.

KARPAS-422 = assay: cells; type: functional, cell-based, Homo sapiens; details: Homo sapiens, KARPAS-422
Description: SANGER: Inhibition of human KARPAS-422 cell growth in a cell viability assay.

SMILES: COC(=O)[C@H](CCSC)NC(=O)c1ccc(NC[C@@H](N)CS)cc1-c1ccccc1
- IC50 (Caov-3 cell line): > 1.02 µM
- IC50 (MDA-MB-134-VI): > 1.02 µM
- IC50 (CWR22R): > 1.02 µM
- IC50 5637: > 1.02 µM
- IC50 (ChaGo-K-1): > 1.02 µM
- IC50 (LP-1): > 1.02 µM
- IC50 (YAPC): > 1.02 µM
- IC50 (NCI-H1734): > 1.02 µM
- IC50 (SIG-M5): > 1.02 µM
- IC50 (SNU-C1): > 1.02 µM
- IC50 (EW-7): > 1.02 µM
- IC50 (647-V): > 1.02 µM
- IC50 (PC-14): > 1.02 µM
- IC50 (MFE-296): > 1.02 µM
- IC50 (U-118-MG): > 1.02 µM
- IC50 (SK-CO-1): > 1.02 µM
- IC50 (COR-L279): > 1.02 µM
- IC50 (Ca-Ski): > 1.02 µM
- IC50 (MONO-MAC-6): > 1.02 µM
- IC50 (NALM-6): > 1.02 µM
- IC50 (GMS-10): > 1.02 µM
- IC50 (SBC-5): > 1.02 µM
- IC50 (OVCAR-8): > 1.02 µM
- IC50 (MDA-MB-468): > 1.02 µM
- IC50 (DV-90): > 1.02 µM
- IC50 (GAMG): > 1.02 µM
- IC50 (LU-99A): > 1.02 µM
- IC50 (NUGC-3): > 1.02 µM
- IC50 (OE33): > 1.02 µM
- IC50 (MES-SA): > 1.02 µM
- IC50 (NCI-H358): > 1.02 µM
- IC50 (CCF-STTG1): > 1.02 µM
- IC50 (8505C): > 1.02 µM
- IC50 (HLE): > 1.02 µM
- IC50 (HOP-92): > 1.02 µM
- IC50 (CAL-12T): > 1.02 µM
- IC50 (KYSE-140): > 1.02 µM
- IC50 (EB2): > 1.02 µM
- IC50 (DMS-79): > 1.02 µM
- IC50 (NCI-H345): > 1.02 µM
- IC50 (SW-620): > 1.02 µM
- IC50 (A-431): > 1.02 µM
- IC50 (T47D): > 1.02 µM
- IC50 (K052): > 1.02 µM
- IC50 (KARPAS-422): > 1.02 µM

SMILES: O=S(=O)(O)c1ccc2cc(/N=N/c3cc(S(=O)(=O)O)c4cccnc4c3O)ccc2c1
- IC50 (Caov-3 cell line): > 16 µM
- IC50 (MDA-MB-134-VI): > 16 µM
- IC50 (CWR22R): > 16 µM
- IC50 5637: > 16 µM
- IC50 (ChaGo-K-1): > 16 µM
- IC50 (LP-1): > 16 µM
- IC50 (YAPC): > 16 µM
- IC50 (NCI-H1734): > 16 µM
- IC50 (SIG-M5): > 16 µM
- IC50 (SNU-C1): > 16 µM
- IC50 (EW-7): > 16 µM
- IC50 (647-V): > 16 µM
- IC50 (PC-14): > 16 µM
- IC50 (MFE-296): > 16 µM
- IC50 (U-118-MG): > 16 µM
- IC50 (SK-CO-1): > 16 µM
- IC50 (COR-L279): > 16 µM
- IC50 (Ca-Ski): > 16 µM
- IC50 (MONO-MAC-6): > 16 µM
- IC50 (NALM-6): > 16 µM
- IC50 (GMS-10): > 16 µM
- IC50 (SBC-5): > 16 µM
- IC50 (OVCAR-8): > 16 µM
- IC50 (MDA-MB-468): > 16 µM
- IC50 (DV-90): > 16 µM
- IC50 (GAMG): > 16 µM
- IC50 (LU-99A): > 16 µM
- IC50 (NUGC-3): > 16 µM
- IC50 (OE33): > 16 µM
- IC50 (MES-SA): > 16 µM
- IC50 (NCI-H358): > 16 µM
- IC50 (CCF-STTG1): > 16 µM
- IC50 (8505C): > 16 µM
- IC50 (HLE): > 16 µM
- IC50 (HOP-92): > 16 µM
- IC50 (CAL-12T): > 16 µM
- IC50 (KYSE-140): > 16 µM
- IC50 (EB2): > 16 µM
- IC50 (DMS-79): > 16 µM
- IC50 (NCI-H345): > 16 µM
- IC50 (SW-620): > 16 µM
- IC50 (A-431): > 16 µM
- IC50 (T47D): > 16 µM
- IC50 (K052): > 16 µM
- IC50 (KARPAS-422): > 16 µM
